Test results: patent US7001770B1, “Calpain inhibitors and their applications” (priority 1998, dated 2006)
Several values for one entry are separate records, joined by “and”; a condition that tells them apart may be missing. Equal values may be shown once. Square brackets hold non-standard residues; d marks the D form. Peptide text beside a SMILES is read from it. Nle = CCCC[C@H](N)C(=O)O

What was measured:
Experiment in all cases: Apoptosis by annexin V-FITC staining, flow cytometry
Format in all cases: cell-based
[1] = system: RKO cells; details: for Percent Annexin V Positive Staining: 26 hours post treatment
Description: (§1) P53 was administered to the cells by the use of the replication defective adenoviral vector ACN53 described in Wills, et al., supra. The effect of varying concentrations of rAd-p53 (from […] to 2×10^9 rAd-p53 particles/ml of solution) was investigated in combination with CI-1 in a range of 5–20 μm. The effects of individual and combination treatment was determined in the in DLD1, RKO, HLF and SK-Hep1 cells was investigated in substantial accordance with the teaching of Examples 2 and 3 herein. The percentage of apoptotic cells was determined at 17 hours post treatment (with the exception of U87 cells (24 hours) and HeLa cells (68 hours)) with annexin V positive staining. The results are presented in graphical format in FIG. 3 of the attached drawings. In brief, the results were as follows:
(§2) The effect of an inhibitor of μ-calpains, CI-1 (N-acetyl-leu-leu-norleucinal), was investigated for its ability to enhance p53 mediated apoptosis in tumor cell lines having p53+ and p53− status listed in Table1. Each cell line was treated with 5–50 μM CI-1 for 17–26 hours. To detect a G0/G1 block, bromodeoxyuridine (BrdU) incorporation followed by flow cytometric analysis was done 17 hours post-treatment as described in Example 4 herein. […] The results of these experiments are presented in FIGS. 1 and 2 of the attached drawings. In FIG. 1, each point on the graph represents percentage annexin V positive after background percentage (DMF alone) was subtracted.
(§3) An aliquot containing approximately 1×10^6 cells of each type was placed in a T-225 flask. The effect of varying concentrations of rAd-p53 (from 1×10^7 to 2×10^9ACN53 particles/ml of solution) was investigated in combination with CI-1 in a range of 5–20 μM. In each instance, the cell line was infected with 1×10^7–1×10^9 particles/ml of cell culture with the ACN53 using the empty cassette virus (ZZCB) as a control. In each instance, the cells were exposed to the virus for a period of one hour. At the end of this time, the virus was washed off the from the cells and fresh media containing an appropriate concentration of CI-1 was added.
(§4) CI-1 was obtained from Boehringer-Mannheim Biochemicals (Indianapolis, Ind.). The CI-1 containing media was prepared as follows. CI-1 was diluted in dimethylformamide (DMF) to a concentration of 33.3 μM/μl. The CI-1 solution in DMF was added to achieve a final concentration in the media of 5 or 10 μM final concentration of CI-1. An equivalent volume of DMF alone was added to the control cells. Calpain inhibitor 2, N-acetyl-leu—leu-methioninal (Boehringer Mannheim) was added to cell lines at 5–50 μM final concentration with or without rAd-p53 for 26 hours.
(§5) At a time of 17 (or 26 hours) post infection, the percentage of cells undergoing apoptosis was determined by convential apoptotic markers. Apoptosis was monitored visually by observing blebbed nuclei characteristic of apoptosis, by propidium iodide staining (using propidium iodide commercially available from Molecular Probes, Inc.) followed by flow cytometric analysis to look for subgenomic populations of cells, and by labeling cells with annexin V-FITC (commercially available from Boehringer Mannheim) in substantial accordance with the instructions provided by the manufacturer, followed by flow cytometric analysis on a FACScan Flow Cytometer (commercially available from Becton Dickinson).

[2] = system: DLD1 cells; details: for Percent Annexin V Positive Staining: 26 hours post treatment
Description: as §1, §2, §3, §4, §5

[3] = system: SK-Hep1 cells; details: for Percent Annexin V Positive Staining: 26 hours post treatment
Description: as §1, §2, §3, §4, §5

[4] = system: HeLa cells; details: for Percent Annexin V Positive Staining: 44 hours post treatment
Description: as §1, §2, §3, §4, §5

[5] = system: U87 cells
Description: as §1, with “The percentage of apoptotic cells was determined at 17 hours post treatment (with the exception of U87 cells (24 hours) and HeLa cells (68 hours)) with annexin V positive staining.” left out
as §2, with “Each cell line was treated with 5–50 μM CI-1 for 17–26 hours.” left out
An aliquot containing approximately 1×10^6 cells of each type was placed in a T-225 flask. The effect of varying concentrations of rAd-p53 (from 1×10^7 to 2×10^9ACN53 particles/ml of solution) was investigated in combination with CI-1 in a range of 5–20 μM. […]
as §5, with “Apoptosis” for “At a time of 17 (or 26 hours) post infection, the percentage of cells undergoing apoptosis was determined by convential apoptotic markers. Apoptosis”

[6] = system: Hep3B cells; details: for Percent Annexin V Positive Staining: 26 hours post treatment
Description: as §2, §4, §5

[7] = system: NCI-H596 cells; details: CI-1 treatment; p53 mutated lung cell line
Description: as §2, §4, §5

[8] = system: A549 cells; details: 26 hours post treatment
Description: as §2, §4, §5

## CCCC[C@@H](C=O)NC(=O)[C@H](CC(C)C)NC(=O)[C@H](CC(C)C)NC(C)=O [CI-1, N-acetyl-leu-leu-norleucinal] (Ac-Leu-Leu-[Nle]-aldehyde)
[1]; CI-1 10 μM
  Percent Annexin V Positive Staining: 13%
[1]; CI-1 20 μM
  Percent Annexin V Positive Staining: 52% and 33%
[1]; CI-1 50 μM
  Percent Annexin V Positive Staining: 57%
[1]; [20 μM] CI-1, 17 hours post treatment
  Percentage of Cells Undergoing Apoptosis: 13%
[2]; 10 μM CI-1, 17 hours post treatment
  Percentage of Cells Undergoing Apoptosis: 15%
[2]; CI-1 10 μM
  Percent Annexin V Positive Staining: 15%
[2]; CI-1 20 μM
  Percent Annexin V Positive Staining: 17%
[2]; CI-1 30 μM
  Percent Annexin V Positive Staining: 17%
[2]; CI-1 50 μM
  Percent Annexin V Positive Staining: 18%
[3]; CI-1 10 μM
  Percent Annexin V Positive Staining: 32%
[3]; CI-1 20 μM
  Percent Annexin V Positive Staining: 66%
[3]; CI-1 30 μM
  Percent Annexin V Positive Staining: 73%
[3]; CI-1 40 μM
  Percent Annexin V Positive Staining: 75%
[3]; CI-1 50 μM
  Percent Annexin V Positive Staining: 73%
[3]; [5 μM] CI-1, 17 hours post treatment
  Percentage of Cells Undergoing Apoptosis: 11%
[4]; 10 μM CI-1, 68 hours post treatment
  Percentage of Cells Undergoing Apoptosis: 8.3%
[4]; CI-1 10 μM
  Percent Annexin V Positive Staining: 28%
[4]; CI-1 20 μM
  Percent Annexin V Positive Staining: 48%
[4]; CI-1 30 μM
  Percent Annexin V Positive Staining: 55%
[4]; CI-1 40 μM
  Percent Annexin V Positive Staining: 67%
[4]; CI-1 50 μM
  Percent Annexin V Positive Staining: 80%
[4]; higher concentrations of CI-1, HeLa have E6 mediated degradation of p53
  induction of apoptosis: induced to apoptosis
[5]; 10 μM CI-1, 24 hrs
  Percentage of Cells Undergoing Apoptosis: 41%
[5]; 20 μM CI-1 treatment, increase from 5%
  percentage of apoptotic cells: 72%
[5]; calpain inhibitor 1, 10 μM for 4 days
  cells annexin V-FITC positive: ~100%
[6]; CI-1 20 μM
  Percent Annexin V Positive Staining: 36%
[6]; CI-1 50 μM
  Percent Annexin V Positive Staining: 32%
[6]; highest concentration of inhibitor (50 μM), p53 null
  increase in the percentage of apoptotic cells: no increase
[7]
  increase in the percent of cells annexin V positive in response to treatment: no increase
[8]; CI-1 10 μM
  Percent Annexin V Positive Staining: 6%
[8]; CI-1 20 μM
  Percent Annexin V Positive Staining: 5%
[8]; CI-1 50 μM
  Percent Annexin V Positive Staining: 18%
